The text below walks through data of PubChem BioAssay (NCI).

Several values for one entry are separate records, joined by “and”; a condition that tells them apart may be missing. Identical values can stand only once.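 Method: 48-hour compound exposure of cells in 96-well plates, five concentrations, linear interpolation of endpoints. At the GI50, growth is halved. At the TGI there is no net growth.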

Common to all, as to experiment: inhibition of tumour cell growth, NCI panel, 48 h
The subject of experiment [1] is A549 NSCLC.
Experiment [2] has as its system EKVX NSCLC.
In experiment [3] the test system is HCT-116 colon.
For experiment [4], the system named is MOLT-4 leukemia.
The subject of experiment [5] is PC-3 prostate.
For experiment [6], the system named is SF-268 CNS.
The test system of experiment [7] is SF-295 CNS.
Experiment [8] relates to SF-539 CNS.
For experiment [9], the system named is SNB-75 CNS.
The test system of experiment [10] is SW-620 colon.

Turning to `CC1CN(CCO)CC(C)O1` (stereo not drawn), the TGI in [1], in experiment [2], in experiment [3], in experiment [4], in [5] and in [6] was over 100 µM throughout. The TGI in experiment [7], in experiment [8], in experiment [9] and in experiment [10] was over 100 µM in each case.

As for `COc1ccc(C2SC(N)=Nc3c2c(C)nn3C(=O)c2ccncc2)cc1` (stereo not drawn), the TGI in experiment [1], in experiment [2], in experiment [3], in [4], in [5] and in experiment [6] was over 100 µM throughout. Moreover, the TGI in [7], in experiment [8], in experiment [9] and in [10] was over 100 µM each time.

Regarding `O=P(O)(O)OC1C(OP(=O)(O)O)C(OP(=O)(O)O)C(OP(=O)(O)O)C(OP(=O)(O)O)C1OP(=O)(O)O` (stereo not drawn), the GI50 in [1] is over 2000 µM; in experiment [2], over 100 µM; in [3], over 2000 µM; in experiment [4] it was over 1510 µM; in experiment [5] it was over 2000 µM; in experiment [6] it was over 2000 µM. For the same molecule, the GI50 in experiment [7] is over 2000 µM; in experiment [8], over 2000 µM; in experiment [9], over 1120 µM; in experiment [10], over 2000 µM. Further, the TGI in experiment [1], in experiment [2], in experiment [3], in experiment [4], in experiment [5] and in experiment [6] was over 2000 µM in each case. Besides, the TGI in experiment [7], in [8], in experiment [9] and in experiment [10] was over 2000 µM each time.

Take `COc1cc(-c2cc(-c3ccc(N(C)C)cc3)nc(N3CCC(O)CC3)c2C#N)cc(OC)c1OC`: the GI50 was 0.378 µM in [1]; 0.461 µM in [2]; 0.287 µM in [3]; 0.706 µM in [4]; 0.895 µM in experiment [5]; 1.22 µM in [6]. Further, the GI50 in experiment [7] is 0.212 µM; in experiment [8] it was 0.82 µM; in experiment [9], 0.457 µM; in experiment [10], 0.448 µM. In addition, the TGI was over 100 µM in experiment [2]; 1.65 µM in experiment [3]; 10.7 µM in experiment [4]; over 100 µM in experiment [5]; 5.31 µM in [6]; 0.518 µM in experiment [7]. In addition, the TGI in [8] is 3.24 µM; in experiment [9], 10.1 µM; in [10] it was over 35.6 µM.

Take `COc1cc[c]([Hg][Cl])cc1`: the GI50 in [1] is 23.8 µM; in experiment [2], 9.51 µM; in experiment [3] it was 4.49 µM; in experiment [4] it was 1.64 µM; in experiment [5], 16.2 µM; in experiment [6], 3.27 µM. The GI50 was 15.5 µM in experiment [7], 3.3 µM in [8], 1.69 µM in [9] and 1.54 µM in experiment [10]. Moreover, the TGI stood at 40.8 µM in experiment [1]; 22.8 µM in [2]; 18.4 µM in [3]; 6.59 µM in experiment [4]; 31.8 µM in experiment [5]; 13.3 µM in experiment [6]. The TGI in experiment [7] was 29.7 µM; in experiment [8] it was 11.1 µM; in experiment [9], 4.37 µM; in [10], 3.18 µM.

As for `Cc1c2c(n3c(nc4ccccc43)c1C#N)SCC2`, the TGI in experiment [1], in [2], in [3], in experiment [4], in experiment [5] and in experiment [6] was over 10 µM each time. Also, the TGI in experiment [7], in experiment [8], in experiment [9] and in [10] was over 10 µM throughout.

Turning to `CC(=O)OCC1OC(n2cc(F)c(=O)[nH]c2=O)C(OC(C)=O)C1OC(C)=O` (stereo not drawn), the TGI in experiment [1] is over 100 µM; in [2], over 100 µM; in experiment [3], 71.8 µM; in [4], over 77.7 µM; in experiment [5], over 100 µM; in experiment [6], over 100 µM. The TGI in experiment [7] was over 100 µM; in experiment [8] it was 52.1 µM; in [9], over 100 µM; in experiment [10], over 100 µM.

For the molecule `CCc1nc(N)nc(N)c1-c1ccc(Cl)cc1`, the GI50 in experiment [1] was 2.23 µM; in experiment [2], 5.7 µM; in experiment [3], 2.85 µM; in experiment [4], 25.6 µM; in experiment [5] it was 5.21 µM; in [6], 6.89 µM. Moreover, the GI50 in experiment [7] was 3.17 µM; in experiment [8], 9.43 µM; in experiment [9], over 100 µM; in experiment [10], 3.99 µM. For the same molecule, the TGI in experiment [1], in experiment [2], in experiment [3], in [4], in [5] and in experiment [6] was over 100 µM throughout. For the same molecule, the TGI in [7] is 37.9 µM and > 100 µM; in experiment [8], over 100 µM; in [9] it was over 100 µM; in experiment [10] it was over 100 µM.

In the case of `C=C1C(=O)O[C@@H]2[C@@H]3O[C@@](C)(CC/C=C(\C)CCC[C@@H]2C)[C@H](O)C[C@@H]13`, the GI50 in [1] is 3.73 µM; in [2], 5.56 µM; in [3], 1.49 µM; in experiment [4] it was 2.75 µM; in experiment [5], 4.31 µM; in [6] it was 3.04 µM. The values for the GI50 in [8], in experiment [9] and in [10] were 2.7 µM, 2.58 µM and 2.03 µM, respectively. Also, the TGI worked out at 14.7 µM in experiment [1]; 20.3 µM in [2]; 2.87 µM in [3]; 7.64 µM in experiment [4]; 18.3 µM in experiment [5]; 10 µM in experiment [6]. Also, the TGI was 27.6 µM in experiment [7], 8.9 µM in [8], 13.4 µM in [9] and 3.96 µM in experiment [10].
